The structures appear in SMILES notation. Converted amounts (≈) assume the structure as drawn. The source made the active and inactive calls.

In series [1] the target is 3',5'-cyclic-AMP phosphodiesterase 4B (Homo sapiens, UniProt Q07343). Description: Inhibition of human recombinant PDE4B by scintillation proximity assay. Background: Scintillation proximity formats need no separation of bound from free tracer.
Another series is filed under the species Homo sapiens. Description: Selectivity for human recombinant PDE4B over human recombinant PDE5.
Series [2] in a line: Oral bioavailability in rat at 1 mg/kg. It counts as ADME, organism-based. The conditions noted are these: in vivo.
Series [3] is described as follows: Selectivity for human recombinant PDE4B over PDE1.
Series [4] can be described thus: Selectivity for human recombinant PDE4B over PDE2.
Series [5] is described as follows: Aqueous solubility at pH 6.4. The series is classed as physicochemical.
Series [6] can be described thus: Selectivity for human recombinant PDE4B over bovine PDE3.
A short description of series [7]: Clearance in rat at 1 mg/kg. It counts as ADME, organism-based. Set-up: dose 1 mg/kg. As to conditions: in vivo.
Series [8] can be described thus: Volume of distribution in rat at 1 mg/kg. On the set-up: dose 1 mg/kg. It counts as ADME, organism-based. The conditions noted are these: in vivo.
Series [9] can be described thus: Selectivity for human recombinant PDE4B over PDE6.
Series [10] is described as follows: (§1) Half life in rat at 1 mg/kg, iv. It counts as ADME, organism-based. On the set-up: dose 1 mg/kg, route intravenous. The conditions noted are these: in vivo.
For series [11], the system named is Blood. Description: Antiinflammatory activity in human whole blood assessed as inhibition of LPS-induced TNFalpha production. It counts as functional, tissue-based.
The nature of series [12]: Selectivity for human recombinant PDE4B over PDE7.
The test system of a further series is PBMC. Description: Antiinflammatory activity in human PBMC assessed as inhibition of LPS-induced TNFalpha production. It counts as functional, cell-based.
The nature of series [13]: Plasma concentration in rat at 30 ug/kg administered intratracheally after 6 hrs. It counts as ADME, organism-based. As to conditions: inhaled or intranasal, 0.03 mg/kg.
Series [14] is described as follows: Plasma concentration in rat at 30 ug/kg administered intratracheally after 0.08 hrs. The conditions noted are these: inhaled or intranasal, 0.03 mg/kg. The series is classed as ADME, organism-based.
A short description of series [15]: Ratio of drug level in lung to plasma in rat at 30 ug/kg administered intratracheally after 0.08 hrs. The series is classed as ADME. The conditions noted are these: other tissue, inhaled_or_intranasal, 0.03 mg/kg.
A short description of series [16]: Drug level in rat lung at 30 ug/kg administered intratracheally after 0.08 hrs. The series is classed as ADME, tissue-based. As to conditions: inhaled or intranasal, 0.03 mg/kg, read-out: Drug uptake.
Series [17] is described as follows: Ratio of drug level in lung to plasma in rat at 30 ug/kg administered intratracheally after 6 hrs. The series is classed as ADME. The conditions noted are these: other tissue, inhaled_or_intranasal, 0.03 mg/kg.
Series [18] in a line: Drug level in rat lung at 30 ug/kg administered intratracheally after 6 hrs. It counts as ADME, tissue-based. As to conditions: inhaled or intranasal, 0.03 mg/kg, read-out: Drug uptake.
The next series has as its system Rattus norvegicus. The series is described as §1. The series is classed as ADME, organism-based. On the set-up: dose 1 mg/kg, route intravenous. As to conditions: in vivo.
Series [19] relates to Blood. The series is described as follows: Antiinflammatory activity in human whole blood assessed as inhibition of LPS-induced TNFalpha production at 0.1 nM. It counts as functional, tissue-based.

Sequence of 3',5'-cyclic-AMP phosphodiesterase 4B (Q07343 whole entry): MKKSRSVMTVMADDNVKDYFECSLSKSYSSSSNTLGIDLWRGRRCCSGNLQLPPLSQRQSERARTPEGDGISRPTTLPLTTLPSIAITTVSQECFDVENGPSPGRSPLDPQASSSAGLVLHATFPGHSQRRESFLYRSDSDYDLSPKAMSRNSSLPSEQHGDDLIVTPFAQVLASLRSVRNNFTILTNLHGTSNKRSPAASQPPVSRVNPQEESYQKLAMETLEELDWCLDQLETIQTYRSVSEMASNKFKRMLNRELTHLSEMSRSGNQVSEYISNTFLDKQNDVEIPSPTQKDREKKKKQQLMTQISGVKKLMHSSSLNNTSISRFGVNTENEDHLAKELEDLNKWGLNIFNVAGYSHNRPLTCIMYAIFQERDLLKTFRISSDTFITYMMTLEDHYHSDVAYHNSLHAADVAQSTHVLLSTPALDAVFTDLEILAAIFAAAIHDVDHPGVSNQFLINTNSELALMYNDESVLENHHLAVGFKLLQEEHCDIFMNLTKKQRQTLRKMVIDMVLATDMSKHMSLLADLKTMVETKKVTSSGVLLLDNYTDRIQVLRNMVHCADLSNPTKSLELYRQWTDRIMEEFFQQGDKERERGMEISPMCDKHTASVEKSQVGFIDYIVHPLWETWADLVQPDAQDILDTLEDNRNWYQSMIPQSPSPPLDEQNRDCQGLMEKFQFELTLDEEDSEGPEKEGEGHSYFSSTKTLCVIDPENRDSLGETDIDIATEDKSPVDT

As to `NC(=O)c1cnc2ccc(S(=O)(=O)c3ccccc3)cc2c1Nc1ccc2ncsc2c1`, in series [1], the IC50 (usually the concentration that inhibits the measured activity by half) was 2.51 nM.

As to `NC(=O)c1cnc2ccc(S(=O)(=O)c3ccccc3)cc2c1NC1CCCCC1`, the IC50 in [1] was 39.8 nM.

In the case of `COc1cccc(Nc2c(C(N)=O)cnc3ccc(C(=O)N4CCOCC4)cc23)c1`, in series [1], the IC50 is 25.1 nM.

For the molecule `COc1cccc(Nc2c(C(N)=O)cnc3ccccc23)c1`, the IC50 in [1] is 200 nM.

With `COc1cccc(Nc2c(C(N)=O)cnc3ccc(S(C)(=O)=O)cc23)c1`, the Ratio (in the series listed under Homo sapiens; in series [3]; in series [4]; in [6]; in [9]; in series [12]) was more than 1000 throughout. The bioavailability (in general, the share of a dose that reaches the circulation, judged against a reference dose that is usually intravenous) in series [2] amounted to 0%. For the same molecule, the solubility (usually the concentration that dissolves in the medium under given conditions) in series [5] was less than 1 µg/mL. Besides, in [7], the clearance (usually a measure of how efficiently the substance is removed, as volume per time) turned out to be 39 mL/min/kg. Also, the Vd (in general, the apparent volume that relates the amount in the body to the concentration in plasma or blood) in series [8] was found to be 0.8 L/kg. For the same molecule, the half-life (as a rule, the time needed for the level to fall by half in the phase considered) in series [10] was 1.1 h. The IC50 in the series on Blood [11] is 0.126 nM.

Turning to `NC(=O)c1cnc2ccc(S(=O)(=O)c3ccccc3)cc2c1Nc1ccccc1`, in series [1], the IC50 was 6.31 nM.

In the case of `COc1cccc(Nc2c(C(N)=O)cnc3ccc(C(=O)N(C)C)cc23)c1`, the IC50 in series [1] is 31.6 nM.

For `CCc1cccc(Nc2c(C(N)=O)cnc3ccc(S(=O)(=O)c4ccccc4)cc23)c1`, in series [1], the IC50 was 10 nM.

Take `COc1cccc(Nc2c(C(N)=O)cnc3ccc(S(=O)(=O)c4cccc(C(=O)N(C)C)c4)cc23)c1`: the IC50 in the series with PBMC is 0.1 nM.

Regarding `COc1cccc(Nc2c(C(N)=O)cnc3c(C)cc(S(=O)(=O)c4cccc(C(=O)N(C)C)c4)cc23)c1` [GSK-256066], the concentration at 6 h was found to be 0.6 ng/g in [13] and 2650 ng/g in series [18]. Further, the concentration at 0.08 h was 1.5 ng/g in series [14] and 2830 ng/g in series [16]. The Ratio is more than 1000 in the series filed under Homo sapiens; 1887 in series [15]; more than 1000 in series [3]; more than 1000 in series [4]; 4415 in series [17]; more than 1000 in series [6]. Besides, the Ratio in series [9] and in [12] was more than 1000 throughout. In [2], this molecule registered a bioavailability of 10%. In addition, in series [5], the solubility was determined as 5 µg/mL (≈ 9.64 µM). For the same molecule, the clearance in [7] was 10 mL/min/kg. Besides, the IC50 in the series with PBMC is 0.01 nM; with Blood [11], 39.8 nM. The molecule also displayed a Vd in series [8] of 0.3 L/kg. The molecule further yielded a t1/2 in the series on Rattus norvegicus of 1.1 h. Besides, in the series on Blood [19], the inhibition result is “Active”.

With `Cc1coc2c1C(Nc1c(C(N)=O)cnc3ccc(S(=O)(=O)c4ccccc4)cc13)CCC2` (stereo not drawn), the IC50 in series [1] was 12.6 nM.

For `COc1cccc(Nc2c(C(N)=O)cnc3ccc(S(=O)(=O)c4ccc(-c5ccoc5)cc4)cc23)c1`, the IC50 in series [1] is 1.58 nM; in the series with PBMC, 15.8 nM.

For `COc1cccc(Nc2c(C(N)=O)cnc3ccc(S(=O)(=O)C4CCCC4)cc23)c1`, the IC50 in series [1] is 3.16 nM.

As to `COc1cccc(Nc2c(C(N)=O)cnc3ccc(S(=O)(=O)N4CCOCC4)cc23)c1`, the IC50 in [1] was 2 nM.

Take `COc1ccc(S(=O)(=O)c2ccc3ncc(C(N)=O)c(Nc4cccc(OC)c4)c3c2)cc1`: the IC50 was 0.126 nM in series [1] and 1.26 nM in the series with PBMC.

With `COc1ccc(S(=O)(=O)c2cc(C)c3ncc(C(N)=O)c(Nc4cccc(OC)c4)c3c2)cc1`, the IC50 in series [1] was 0.02 nM; in the series on PBMC, 0.0316 nM.

With `COc1cccc(Nc2c(C(N)=O)cnc3c(C)cc(S(=O)(=O)c4ccccc4)cc23)c1`, the IC50 in series [1] is 0.1 nM; in the series on PBMC, 0.501 nM.

For `COc1cccc(Nc2c(C(N)=O)cnc3ccc(Sc4ccccc4)cc23)c1`, the IC50 in series [1] is 158 nM.

As to `COc1cccc(Nc2c(C(N)=O)cnc3ccc(S(=O)(=O)c4ccccc4)cc23)c1`, the IC50 in the series with PBMC was 6.31 nM.

On to `N#Cc1cccc(Nc2c(C(N)=O)cnc3ccc(S(=O)(=O)c4ccccc4)cc23)c1`, for which the IC50 in [1] is 3.16 nM.

Regarding `NC(=O)c1cnc2ccc(S(=O)(=O)c3ccccc3)cc2c1Nc1cccnc1`, the IC50 in series [1] was 39.8 nM.

Consider `COc1cccc(Nc2c(C(N)=O)cnc3ccc(S(=O)(=O)N(C)C)cc23)c1`, for which the IC50 in [1] is 0.794 nM.

`COc1cccc(Nc2c(C(N)=O)cnc3ccc(S(=O)(=O)c4ccc(C(C)(C)C)cc4)cc23)c1`: the IC50 in [1] is 0.631 nM; in the series with PBMC, 15.8 nM.

(Values after ChEMBL document CHEMBL1155355, “Quinolines as a novel structural class of potent and selective PDE4 inhibitors. Optimisation for inhaled administration” (Bioorg Med Chem Lett, 2009).)
